Assay results from ChEMBL document CHEMBL5465560, “Selectivity Literature for EUbOPEN Chemogenomic Library” (2024).

Tests used:
[1] = molecular target: Serine/threonine-protein kinase PAK 6 (Homo sapiens) (UniProt Q9NQU5); assay: Selectivity interaction (KinomeScan (DiscoverX)) EUB0001079a PAK6; details: at 1 µM
[2] = Selectivity interaction (Kinase panel (KiNativ target engagement assay in Jurkat cells)) EUB0001635a STLK6; details: Selectivity number of off-targets 0; Selectivity number of targets 233; Source Knowledge https://www.sciencedirect.com/science/article/pii/S2451945619300674?via%3Dihub; at 1 µM
[3] = molecular target: Serine/threonine-protein kinase Nek7 (Homo sapiens) (UniProt Q8TDX7); assay: Selectivity interaction (ActivX KiNativ screen (kinase selectivity in THP-1 cell lysates)) EUB0000639a NEK7; type: subcellular; details: lysate
Sequence of Serine/threonine-protein kinase Nek7 (Homo sapiens) (Q8TDX7 whole entry, looked up): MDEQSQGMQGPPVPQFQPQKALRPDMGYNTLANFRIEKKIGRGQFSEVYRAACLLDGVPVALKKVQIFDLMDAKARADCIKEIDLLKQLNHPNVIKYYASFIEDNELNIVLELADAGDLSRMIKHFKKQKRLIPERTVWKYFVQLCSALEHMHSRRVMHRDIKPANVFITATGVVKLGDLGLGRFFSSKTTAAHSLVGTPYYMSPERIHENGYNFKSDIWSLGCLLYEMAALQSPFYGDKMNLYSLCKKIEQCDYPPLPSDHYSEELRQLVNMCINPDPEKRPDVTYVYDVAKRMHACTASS

[4] = molecular target: T1, Mitogen-activated protein kinase kinase kinase 5 (Homo sapiens) (UniProt Q99683); assay: Selectivity interaction (ActivX KiNativ screen (kinase selectivity in THP-1 cell lysates)) EUB0000639a MAP3K5; type: subcellular; details: lysate, at 0.2 µM
T1 sequence (whole entry): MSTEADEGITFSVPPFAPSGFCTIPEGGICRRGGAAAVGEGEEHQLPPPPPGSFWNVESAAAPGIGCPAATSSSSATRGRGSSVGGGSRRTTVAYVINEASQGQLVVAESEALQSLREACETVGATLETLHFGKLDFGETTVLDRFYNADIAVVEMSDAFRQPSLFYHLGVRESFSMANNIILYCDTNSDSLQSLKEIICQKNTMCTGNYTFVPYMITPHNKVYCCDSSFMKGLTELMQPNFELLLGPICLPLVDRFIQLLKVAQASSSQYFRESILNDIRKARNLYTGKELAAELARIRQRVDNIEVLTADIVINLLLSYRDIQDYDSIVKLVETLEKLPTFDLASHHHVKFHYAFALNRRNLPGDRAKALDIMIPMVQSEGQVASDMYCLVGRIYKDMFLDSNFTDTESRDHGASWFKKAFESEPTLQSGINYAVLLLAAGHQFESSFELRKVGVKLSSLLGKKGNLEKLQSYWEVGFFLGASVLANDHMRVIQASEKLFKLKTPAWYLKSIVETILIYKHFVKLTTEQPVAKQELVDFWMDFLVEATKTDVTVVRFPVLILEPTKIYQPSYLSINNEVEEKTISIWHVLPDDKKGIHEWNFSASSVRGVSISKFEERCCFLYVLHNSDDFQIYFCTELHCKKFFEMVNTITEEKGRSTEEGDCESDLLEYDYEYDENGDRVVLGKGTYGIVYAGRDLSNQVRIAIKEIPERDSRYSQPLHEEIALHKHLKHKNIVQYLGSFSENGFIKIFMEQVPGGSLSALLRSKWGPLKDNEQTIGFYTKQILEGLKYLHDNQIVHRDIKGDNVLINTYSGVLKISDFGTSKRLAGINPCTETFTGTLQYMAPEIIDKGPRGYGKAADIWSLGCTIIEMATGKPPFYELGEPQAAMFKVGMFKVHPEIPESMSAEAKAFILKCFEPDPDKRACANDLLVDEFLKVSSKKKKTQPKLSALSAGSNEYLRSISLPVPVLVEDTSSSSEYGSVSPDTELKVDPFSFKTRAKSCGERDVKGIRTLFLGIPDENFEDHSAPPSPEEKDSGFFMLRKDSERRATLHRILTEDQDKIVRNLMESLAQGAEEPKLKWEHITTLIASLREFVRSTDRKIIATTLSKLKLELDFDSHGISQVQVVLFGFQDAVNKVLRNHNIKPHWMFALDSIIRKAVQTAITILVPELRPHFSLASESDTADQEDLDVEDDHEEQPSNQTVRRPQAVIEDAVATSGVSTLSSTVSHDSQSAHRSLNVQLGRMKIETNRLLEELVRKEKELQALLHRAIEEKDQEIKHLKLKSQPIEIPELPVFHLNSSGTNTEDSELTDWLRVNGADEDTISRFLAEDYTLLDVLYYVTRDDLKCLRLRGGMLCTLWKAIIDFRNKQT

[5] = molecular target: Serine/threonine-protein kinase 35 (Homo sapiens) (UniProt Q8TDR2); assay: Selectivity interaction (KinomeScan (DiscoverX)) EUB0000595a STK35; details: at 10 µM
Sequence of Serine/threonine-protein kinase 35 (Homo sapiens) (Q8TDR2 whole entry): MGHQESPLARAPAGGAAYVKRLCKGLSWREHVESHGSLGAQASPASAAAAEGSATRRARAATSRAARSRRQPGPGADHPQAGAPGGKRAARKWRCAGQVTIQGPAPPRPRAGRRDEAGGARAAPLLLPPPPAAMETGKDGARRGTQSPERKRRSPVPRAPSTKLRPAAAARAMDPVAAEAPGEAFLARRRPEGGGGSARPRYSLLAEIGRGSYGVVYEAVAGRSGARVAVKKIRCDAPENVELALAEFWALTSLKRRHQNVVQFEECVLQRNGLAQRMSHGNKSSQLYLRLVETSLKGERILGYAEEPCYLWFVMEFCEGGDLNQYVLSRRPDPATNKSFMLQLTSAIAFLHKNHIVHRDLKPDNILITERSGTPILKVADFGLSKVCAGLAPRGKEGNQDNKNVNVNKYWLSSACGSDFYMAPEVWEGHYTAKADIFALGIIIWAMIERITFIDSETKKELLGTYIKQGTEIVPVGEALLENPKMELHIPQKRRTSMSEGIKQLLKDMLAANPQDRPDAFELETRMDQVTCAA

[6] = molecular target: Fibroblast growth factor receptor 4 (Homo sapiens, UniProt P22455); assay: Selectivity interaction (Kinase screening (Nanosyn)) EUB0000604a FGFR4
Sequence of Fibroblast growth factor receptor 4 (P22455 22-802 limits assumed): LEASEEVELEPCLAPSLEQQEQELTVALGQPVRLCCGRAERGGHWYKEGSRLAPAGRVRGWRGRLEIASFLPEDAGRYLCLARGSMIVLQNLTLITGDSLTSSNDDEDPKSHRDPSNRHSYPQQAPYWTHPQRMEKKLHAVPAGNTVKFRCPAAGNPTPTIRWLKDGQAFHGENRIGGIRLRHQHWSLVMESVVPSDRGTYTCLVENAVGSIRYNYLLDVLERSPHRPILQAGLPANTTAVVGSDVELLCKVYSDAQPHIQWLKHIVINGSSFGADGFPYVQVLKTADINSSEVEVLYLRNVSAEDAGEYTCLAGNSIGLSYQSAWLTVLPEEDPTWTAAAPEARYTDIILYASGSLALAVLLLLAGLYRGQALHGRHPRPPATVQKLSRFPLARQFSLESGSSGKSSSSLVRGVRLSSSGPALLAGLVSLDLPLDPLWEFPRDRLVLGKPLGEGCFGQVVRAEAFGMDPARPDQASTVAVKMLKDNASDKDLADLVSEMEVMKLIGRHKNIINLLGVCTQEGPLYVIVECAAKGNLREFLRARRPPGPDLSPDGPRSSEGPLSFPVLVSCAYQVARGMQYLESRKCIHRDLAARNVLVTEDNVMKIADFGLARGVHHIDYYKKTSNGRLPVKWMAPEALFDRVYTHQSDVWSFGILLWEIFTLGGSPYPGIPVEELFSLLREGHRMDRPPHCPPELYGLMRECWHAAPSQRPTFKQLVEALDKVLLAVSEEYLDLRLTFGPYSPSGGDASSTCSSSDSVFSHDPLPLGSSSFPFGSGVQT

[7] = molecular target: T2, Rhodopsin kinase GRK7 (Homo sapiens) (UniProt Q8WTQ7); assay: Selectivity interaction (KinomeScan (DiscoverX)) EUB0000655a GRK7; details: at 10 µM
T2 sequence (whole entry): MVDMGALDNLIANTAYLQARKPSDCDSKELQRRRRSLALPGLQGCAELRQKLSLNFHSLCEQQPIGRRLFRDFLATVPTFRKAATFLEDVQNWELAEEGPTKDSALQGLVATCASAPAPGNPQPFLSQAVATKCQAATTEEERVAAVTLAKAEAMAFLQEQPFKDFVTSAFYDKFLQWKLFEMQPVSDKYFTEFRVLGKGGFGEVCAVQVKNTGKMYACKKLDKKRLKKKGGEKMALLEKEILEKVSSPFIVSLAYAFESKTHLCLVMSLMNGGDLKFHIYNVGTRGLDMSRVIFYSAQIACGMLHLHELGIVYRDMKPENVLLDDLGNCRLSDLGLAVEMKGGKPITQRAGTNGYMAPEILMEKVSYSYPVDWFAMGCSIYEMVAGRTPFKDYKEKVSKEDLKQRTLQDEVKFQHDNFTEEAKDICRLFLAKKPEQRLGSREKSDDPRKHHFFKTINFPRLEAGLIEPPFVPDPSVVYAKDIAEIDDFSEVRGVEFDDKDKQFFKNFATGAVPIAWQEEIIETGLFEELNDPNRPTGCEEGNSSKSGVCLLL

Sequence of Serine/threonine-protein kinase PAK 6 (Homo sapiens) (Q9NQU5 whole entry, looked up): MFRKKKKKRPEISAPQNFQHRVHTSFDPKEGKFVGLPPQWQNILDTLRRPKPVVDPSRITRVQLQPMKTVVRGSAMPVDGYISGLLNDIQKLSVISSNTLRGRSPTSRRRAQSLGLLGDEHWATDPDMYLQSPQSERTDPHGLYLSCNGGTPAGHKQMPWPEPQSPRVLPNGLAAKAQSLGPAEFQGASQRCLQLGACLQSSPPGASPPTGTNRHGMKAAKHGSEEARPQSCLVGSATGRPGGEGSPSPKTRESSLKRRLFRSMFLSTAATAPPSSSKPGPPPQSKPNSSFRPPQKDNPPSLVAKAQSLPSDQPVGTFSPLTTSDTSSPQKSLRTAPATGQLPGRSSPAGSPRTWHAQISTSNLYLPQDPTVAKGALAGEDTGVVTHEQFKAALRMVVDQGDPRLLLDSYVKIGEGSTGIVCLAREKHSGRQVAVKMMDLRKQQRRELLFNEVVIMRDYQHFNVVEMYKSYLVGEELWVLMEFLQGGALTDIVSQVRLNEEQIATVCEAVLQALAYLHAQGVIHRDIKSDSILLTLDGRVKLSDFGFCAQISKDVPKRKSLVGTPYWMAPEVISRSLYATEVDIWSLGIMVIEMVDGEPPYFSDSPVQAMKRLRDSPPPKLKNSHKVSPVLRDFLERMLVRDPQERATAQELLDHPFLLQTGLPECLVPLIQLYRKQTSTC

Nc1cnc(N2CCc3cc(S(=O)(=O)Nc4c(F)cc(Cl)cc4F)cc(N4CCCC4=O)c32)nc1 [TP-020n]
% of control [1]: 90%

C=CC(=O)Nc1ccc(C(=O)Nc2[nH]nc3c2CN(C(=O)N[C@H](CN(C)C)c2ccccc2)C3(C)C)cc1
% of engagement [2]: -9%

CC[C@@H]1[C@H](F)C(=O)N[C@@H]1COc1nccc2cc(C(N)=O)c(OC)cc12 [ZIMLOVISERTIB]
% of inhibition ([3]; at 0.01 µM): -4%
% of inhibition ([3]; at 0.04 µM): -1.1%
% of inhibition ([3]; at 0.2 µM): -1.6%
% of inhibition ([3]; at 1 µM): 10.8%
% of inhibition ([3]; at 5 µM): -20%
% of inhibition [4]: -11.2%

COCC(=O)NC/C=C/c1ccc2ncnc(Nc3ccc(Oc4ccc(C)nc4)c(C)c3)c2c1 [CP-724714]
% of control [5]: 65%

Cc1cnc(Nc2ccc(F)cc2Cl)nc1-c1c[nH]c(C(=O)N[C@H](CO)c2cccc(Cl)c2)c1
% of inhibition [6]: 0.3%

CN(C)CCOc1ccc(-c2nc(-c3ccncc3)c(-c3ccc4c(c3)CC/C4=N\O)[nH]2)cc1
% of control [7]: 100%
